Results from US7122335B1, “Compounds and methods to enhance rAAV transduction” (priority 1999, dated 2006).
Several values for one entry are separate records, joined by “and”; a condition that tells them apart may be missing. Equal values may be shown once. Entries after “also recorded” stand apart in the source; their conditions may differ. Peptide text beside a SMILES is read from it. * marks the point of attachment. Cbz = O=C(OCc1ccccc1)*

Tests used:
mouse lung = assay: rAAV (AV.LacZ) gene transfer in mouse lung in vivo; parameters: species or system BALB/c mice
Procedure: FIGS. 17A–F. Persistent induction of rAAV mediated gene transfer in mouse conducting airways by proteasome inhibitors. FIGS. 17A–C) Recombinant AV.Alkphos (5×10^10 particles) was administered to mouse lung either as virus alone in PBS or virus in combination with 40 μM LLnL in PBS. Virus was directly instilled into […] mice trachea with a 30 G needle in a total volume of 30 μl. To insure the spread of the virus in mouse lung, 50 μl air was pumped into lung through the same syringe immediately after virus was administered. Ninety days after infection, lungs were harvested intact and fixed in 4% paraformaldehyde followed by cryosection. AAV-mediated transgene expression was evaluated by 10 μm tissue sections staining for heat-resistant alkaline phosphatase. FIG. 17A: infection with AAV alone; FIGS. 17B and 17C: infection with AAV supplemented with 40 µM of LLnL. FIGS. 17D–F) 6 week old BALB/c mouse (N=3 animals in each group) were infected with 5×10^10 DNA particles of AV.LacZ in the absence or presence of 400 μM Z-LLL by nasal instillation. Representative examples of histochemical staining for LacZ expression in large bronchioles 150 days post-infection are shown in FIGS. 17D and 17E. The right and left sides of each panel represent Nomarski and bright field photomicrographs, respectively. The 100 μm scale bar applies to all photomicrographs. The mean (+/−SEM) percentage of LacZ expressing epithelial cells at various levels of the airway was quantitated using the morphometric procedures outlined in the methods, and the analysis represents results from three independent animals for each group (FIG. 17F).
In vivo studies in mice. Animal studies were performed in accordance with the institutional guidelines of the University of Iowa To determine the effect of the proteasome inhibitor on AAV mediated gene transfer in mouse lung, 6 week-old BALB/c mice were lightly anesthetized using a methoxyflurane chamber. AV.LacZ (5×10^10 particles) was administered alone or with 400 μM Z-LLL in a 10 μl instillation by nasal aspiration as described by Walters et al. (2000). To prevent unforeseen toxicity of DMSO solvent, the proteasome inhibitor Z-LLL was dissolved in ethanol as a 40 mM stock solution and was included in the viral inoculum at 1% final concentration. Viral infection controls in the absence of Z-LLL also contained a 1% final concentration of ethanol. […] The trachea was intubated and instilled at 10 cm of water pressure with the following solutions in order: PBS, 0.5% glutaraldehyde, 1 mM MgCl2/PBS, and finally X-gal staining reagent for an overnight incubation at room temperature. The X-gal stained mouse lungs were then post fixed in 10% neutral buffered formalin for 48 hours at room temperature and cryopreserved in serial 10%, 20% and 30% sucrose/PBS solutions. Lungs (N=3 for each condition) were embedded in OCT (optimal cutting temperature; Baxter, Warrendale, Pa.) and 15 μm serially sections were analyzed for gene transfer by calculating the percentage of positive cells in the airway epithelium. The diameter of the airway was recorded for classification (>360 μm, 260–350 μm, 160–250 μm, <150 μm) of results following morphometric analysis. Greater than 150 airway cross-sections were quantified for each experimental condition.

[1] = system: polarized human airway epithelia; assay: In situ localization of S35-labeled rAAV particles (photoemulsion, morphometry); format: cell-based; conditions: 2 hours post-infection, apical or basolateral infection
Procedure: FIG. 13. In situ localization of rAAV in the polarized airway epithelia using S^35 labeled virus. Polarized human airway epithelia were infected with S^35-labeled virus (MOI=50,000 particles/cell) from either the apical or basolateral side (+/−LLnL). At 2 hours post-infection, transwells were washed with media three times and fixed in 4% paraformaldehyde overnight prior to cryoprotection in sucrose and OCT embedding. 10 μm frozen sections were overlaid with photoemulsion and developed after 5 weeks of exposure. Panel A depicts the typical localization pattern following basolateral infection in the presence of LLnL. Arrows indicate nuclear-associated virus. Panel B presents enlargements of boxed regions in Panel A. Blinded morphometric quantification was performed by counting the number of nuclear-associated and cytoplasmic radioactive grains of 10 random fields, as shown in Panel A. A total of 60 cells was quantitated per field, to give a total of 600 cells per sample and 2400 cells per condition. Results in Panel C are the mean +/−SEM of four independent samples for each condition.
Cryosections of polarized airway epithelial cells infected with ^35S-labeled AV.GFP3ori (MOI=50,000 particles/cell) from the apical or basolateral sides in the presence or absence of LLnL were overlaid with photographic emulsion and exposed for 5 weeks prior to developing. […]

Compound	airway cells transduced by AV.LacZ, average (mouse lung; 400 μM Z-LLL intranasal with 5×10^10 particles, 150 days)	airway cells in the smaller bronchioles (<150 mm) expressing β-galactosidase (mouse lung; 400 μM Z-LLL, 150 days) [%]	transduction of lung, in words (mouse lung; 400 μM Z-LLL, 150 days)	transduction efficiency in larger bronchioles (>350 mm), mean % of airway epithelium (mouse lung; 400 μM Z-LLL, 150 days post-infection)	transgene expression (X-gal staining) in lung (mouse lung; 3 and 10 days post infection)	intracellular distribution of radiolabeled rAAV particles (nuclear vs cytoplasmic grains) [1]
CC(C)C[C@@H](C=O)NC(=O)[C@H](CC(C)C)NC(=O)[C@H](CC(C)C)NC(=O)OCc1ccccc1 [Z-LLL, N-carbobenzoxyl-L-leucinyl-L-leucinyl-L-leucinal] (Cbz-Leu-Leu-Leu-aldehyde)	about 5.88%	1.37±0.41	significant transduction was achieved	10.36±1.63% and 10.36+/−1.63%	no detectable transgene expression	–
N-acetyl-L-leucinyl-L-leucinal-L-norleucinal [LLnL]	–	–	–	–	–	significant increase in nuclear trafficking; also recorded: significant shift to nuclear associated grains
